Results from patent US12247246B2, “Identification of inhibitors of TcpC and TIR NADase activity” (Washington University, priority 2017, dated 2025).
pIC50: −log10 of the molar value.

Assays:
[1] = tested on: prokaryotic TIR domains (TirS-TIR, TcpC-TIR, TcpA-TIR); assay: Substrate specificity in NADase assay, purified prokaryotic TIR domains; type: biochemical; details: purified TIR proteins, HPLC and LC-MS, 30 minutes
Method: Supernatant (90 μL) containing the extracted metabolites was mixed with 0.5M Potassium Phosphate buffer (10 μL), and metabolites were analyzed by HPLC (Nexera X2) with Kinetex (100×3 mm, 2.6 μm; Phenomenex) column. Internal standards for NAD^+, Nicotinamide (Nam), ADP Ribose (ADPR), and cyclic ADPR were used to generate standard curves for quantification of the respective compounds. The levels for each compound in each experimental sample were normalized to the 0 min time point that was analyzed concurrently.
Neutralization was performed with 3M K2CO3.
Samples were prepared by mixing the reactions with 50% methanol in distilled water. The samples were placed on ice, centrifuged, soluble metabolites in the supernatant were extracted with chloroform, and the aqueous phase was lyophilized and stored at −20° C. until LC-MS analysis. For LC-MS, the metabolite samples were reconstituted with 5 mM ammonium formate, centrifuged 12,000×g for 10 min, and the cleared supernatant was applied to the LC-MS for metabolite identification and quantification. Liquid chromatography was performed by HPLC system (1290; Agilent) with Atlantis T3 (2.1×150 mm, 3 μm; Waters) column. Samples (10 µl) were injected at a flow rate of 0.15 ml/min with 5 mM ammonium formate for mobile phase A and 100% methanol for mobile phase B and metabolites were eluted with gradients of 2-6 min, 0-20% B; 6-8 min, 20-50% B; 8-10 min 50% B; 10-15 min, 50-0% B. The metabolites were detected with Triple Quad mass spectrometer (6460; Agilent) under positive ESI multiple reaction monitoring (MRM). Metabolites were quantified by MassHunter quantitative analysis tool (Agilent) with standard curves. Standard curves for each compound were generated by analyzing NAD^+, cADPR, ADPR, and Nam reconstituted in 5 mM ammonium formate.
In some instances, NADases are capable of cleaving a number of related molecules, such as the NAD+ precursor Nicotinamide Mononucleotide (NMN) in the case of CD38 (Sauve et al., 1998). Further, we wanted to determine whether prokaryotic TIRs could cleave additional substrates, providing additional paths to modifying cell metabolism. To examine the substrate specificity of the prokaryotic TIR domains, we tested their activity using a wide variety of metabolites and analogs.

[2] = target: T1, SARM1-TIR (Homo sapiens, UniProt Q6SZW1, DEL570-570/DEL657-657); assay: Substrate specificity in NADase assay, purified SARM1-TIR; type: biochemical; details: purified TIR protein, HPLC and LC-MS, 30 minutes
T1 construct: made in house
T1 sequence (Q6SZW1 with tags, fused parts or gaps DEL570-570/DEL657-657): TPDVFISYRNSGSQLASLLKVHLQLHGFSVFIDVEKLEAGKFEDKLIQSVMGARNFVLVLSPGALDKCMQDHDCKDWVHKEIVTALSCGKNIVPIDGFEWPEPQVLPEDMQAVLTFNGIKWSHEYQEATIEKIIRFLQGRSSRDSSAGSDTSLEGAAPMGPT

[3] = target: TirS (Staphylococcus aureus, UniProt P0DTS9); assay: TirS NADase inhibition assay (in-vitro translated protein, NAD/ADPR by HPLC); type: biochemical; details: FIG. 11B
Sequence of TirS (P0DTS9 141-275 limits assumed): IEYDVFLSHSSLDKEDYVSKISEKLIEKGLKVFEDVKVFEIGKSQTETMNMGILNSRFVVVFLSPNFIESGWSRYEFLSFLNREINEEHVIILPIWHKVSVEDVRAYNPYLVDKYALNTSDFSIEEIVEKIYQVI
Method: (§1) The reaction was incubated at 37° C. for 60 min, and then stopped by addition of 180 μl of 0.55 M perchloric acid (HClO4) and placed on ice. After 10 min on ice, the reaction plates were centrifuged for 10 min at 4,000 rpm (Sorvall ST 16R centrifuge). The supernatant (120 μl) was transferred to a new plate and 10 μl of 3M K2CO3 was added to neutralize the solution. Precipitated salts were removed by centrifugation 10 min at 4,000 rpm (Sorvall ST 16R centrifuge). […] This ratio was compared to the ratio generated in the absence of compound inhibitors.

[4] = target: TcpC TIR (Escherichia coli O6:H1, UniProt A0A0H2V8B5); assay: biochemical; type: biochemical, uropathogenic Escherichia coli; details: for inhibitor of TcpC TIR NADase activity (screen hit, NAD/ADPR ratio >2): Pharmakon library screen, 25 μM compound, 10 μM NAD, 37° C. 60 min, hits retested for dose dependent inhibition
Sequence of TcpC TIR (A0A0H2V8B5 169-303 limits assumed): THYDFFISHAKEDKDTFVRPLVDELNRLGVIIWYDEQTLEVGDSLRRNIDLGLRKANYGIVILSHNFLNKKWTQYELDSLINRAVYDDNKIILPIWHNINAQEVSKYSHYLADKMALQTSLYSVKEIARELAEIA
Method: (§2) NRK1-HEK293T cells were seeded onto 150 cm2 plates at 20×10^6 cells per plate. […] Forty-eight hours after transfection, cells were harvested, pelleted by centrifugation at 1,000 rpm (Sorvall ST 16R centrifuge, Thermo Fisher), and washed once with cold PBS (0.01 M phosphate buffered saline NaCl 0.138 M; KCl 0.0027 M; pH 7.4). The cells were resuspended in PBS with protease inhibitors (Complete protease inhibitor cocktail, Roche product #11873580001) and cell lysates were prepared by sonication (Branson Sonifer 450, output=3, 20 episodes of stroke). […] Protein concentration was determined by the Bicinchoninic (BCA) method and used to normalize lysate concentrations.
as §1
(§3) Positive hits were individually purchased from Sigma and tested its dose dependent inhibition in conditions described above. SARM1 Sam-Tir lysate and MSSA Tir were also used to test if these compounds could block these Tir NADase activities as well.

[5] = target: T2, SARM1 (Sam-Tir) (Homo sapiens, UniProt Q6SZW1); assay: SARM1 Sam-Tir lysate NADase inhibition assay; type: biochemical; details: data not shown
T2 construct: SARM1 Sam-Tir lysate and MSSA Tir were also used; made in house; host or cells: lysate
T2 sequence (Q6SZW1 410-724 limits assumed): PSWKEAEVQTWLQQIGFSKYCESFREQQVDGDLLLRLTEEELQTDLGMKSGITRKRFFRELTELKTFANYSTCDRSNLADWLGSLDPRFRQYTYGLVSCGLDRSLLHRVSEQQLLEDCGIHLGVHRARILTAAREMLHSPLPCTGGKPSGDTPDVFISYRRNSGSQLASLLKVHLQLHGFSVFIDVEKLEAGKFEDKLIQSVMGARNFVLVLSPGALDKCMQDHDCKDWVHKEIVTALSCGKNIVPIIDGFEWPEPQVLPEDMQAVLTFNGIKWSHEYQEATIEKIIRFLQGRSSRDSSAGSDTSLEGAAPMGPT
Method: NAD (10 μM final concentration) was then added for a final reaction volume of 20 μl. The reaction was incubated at 37° C. for 60 min, and then stopped by addition of 180 μl of 0.55 M perchloric acid (HClO4) and placed on ice. After 10 min on ice, the reaction plates were centrifuged for 10 min at 4,000 rpm (Sorvall ST 16R centrifuge). The supernatant (120 μl) was transferred to a new plate and 10 μl of 3M K2CO3 was added to neutralize the solution. Precipitated salts were removed by centrifugation 10 min at 4,000 rpm (Sorvall ST 16R centrifuge). The supernatant was transferred and analyzed by HPLC (Shimadzu Nexera X2) to quantify the amounts of NAD and ADPR, a product of the cleavage reaction, in each sample. From these values, the NAD/ADPR ratio was calculated for each compound as a measure of NAD cleavage activity. This ratio was compared to the ratio generated in the absence of compound inhibitors.
as §3

[6] = target: T3, uropathogenic Escherichia coli TcpC TIR domain (TcpC-TIR) (Escherichia coli, UniProt A0A0H2V8B5); type: biochemical; details: primary screen 25 μM, 10 μM NAD, 37° C, 60 min (hit: NAD/ADPR ratio >2), then dose response; FIG. 10
T3 construct: cell lysate
T3 sequence (A0A0H2V8B5 170-307): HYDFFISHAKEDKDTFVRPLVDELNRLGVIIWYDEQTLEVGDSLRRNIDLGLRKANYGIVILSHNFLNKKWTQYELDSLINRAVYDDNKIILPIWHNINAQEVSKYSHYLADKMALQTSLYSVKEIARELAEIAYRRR
Method: as §2, §1
Positive hits were individually purchased from Sigma and tested its dose dependent inhibition in conditions described above. […]

[7] = tested on: SPN (Streptococcus Pyogenes NAD^+ glycohydrolase); details: reported value (Ghosh et al., 2010); cited from earlier work

Compound	cleavage of substrate by prokaryotic TIR domains [1]	cleavage of substrate by SARM1-TIR [2]	further results
CC(=O)c1ccc[n+]([C@@H]2O[C@H](COP(=O)([O-])OP(=O)(O)OC[C@H]3O[C@@H](n4cnc5c(N)ncnc54)[C@H](O)[C@@H]3O)[C@@H](O)[C@H]2O)c1 [3-apAD, 3-acetylpyridine adenine dinucleotide]	substantially cleaved	substantially cleaved	
Nc1c2ccccc2nc2ccccc12 [9-aminoacridine]			inhibition of TirS NADase activity, compared among acridine compounds [3]: most potent inhibition; inhibition of TcpC TIR NADase activity ([4]; data not shown): Neither of these drugs inhibited; inhibition of SARM1 (Sam-Tir) NADase activity [5]: Neither of these drugs inhibited
Nc1ncnc2c1ncn2[C@@H]1O[C@H](COP(=O)(O)OP(=O)(O)OP(=O)(O)O)[C@@H](O)[C@H]1O [ATP, Adenosine triphosphate]	unable to detect substantial cleavage	unable to detect substantial cleavage	
Cc1cc(N)c2ccccc2[n+]1CCCCCCCCCC[n+]1c(C)cc(N)c2ccccc21 [Dequalinium]			inhibition of TcpC TIR NADase activity [6]: very potent inhibitor; pIC50 [4]: ~6.52; inhibitor of TcpC TIR NADase activity (screen hit, NAD/ADPR ratio >2) [4]: potent inhibitor; inhibitor of TcpC TIR NADase activity (screen hit, NAD/ADPR ratio >2) ([4]; listed as dequalinium): inhibitors
NC(=O)c1ccc[n+]([C@@H]2O[C@H](COP(=O)([O-])OP(=O)(O)OC[C@H]3O[C@@H](n4cnc5c(N)ncnc54)[C@H](O)[C@@H]3O)[C@@H](O)[C@H]2O)c1 [NAD+]			Km [7]: 188 µM
NC(=O)c1ccc[n+]([C@@H]2O[C@H](COP(=O)([O-])OP(=O)(O)OC[C@H]3O[C@@H](n4cnc5c(=O)[nH]c(N)nc54)[C@H](O)[C@@H]3O)[C@@H](O)[C@H]2O)c1 [NGD, Nicotinamide Guanine Dinucleotide]	did not cleave	cleaved	
NC(=O)c1ccc[n+](C2OC(COP(=O)(O)OP(=O)(O)OCC3OC(n4cnc5c(=O)[nH]cnc54)C(O)C3O)C(O)C2O)c1 (stereo not shown) [NHD, Nicotinamide Hypoxanthine Dinucleotide]	did not cleave	cleaved	
NC(=O)c1ccc[n+]([C@@H]2O[C@H](COP(=O)([O-])O)[C@@H](O)[C@H]2O)c1 [NMN, Nicotinamide Mononucleotide]	little effect		
Nc1ncnc2c1ncn2[C@@H]1O[C@H](COP(=O)(O)OP(=O)(O)OC[C@H]2O[C@@H]([n+]3cccc(C(=O)O)c3)[C@H](O)[C@@H]2O)[C@@H](O)[C@H]1O [NaAD, Nicotinic Acid Adenine Dinucleotide]	none cleaved	none cleaved	
NC(N)=NC(=O)c1nc(Cl)c(N)nc1N [amiloride, 3,5-diamino-6-chloro-N-(diaminomethylidene)pyrazine-2-carboxamide]			inhibitor of TcpC TIR NADase activity (screen hit, NAD/ADPR ratio >2) [4]: inhibitors
NC(=S)c1ccc[n+]([C@@H]2O[C@H](COP(=O)([O-])OP(=O)(O)OC[C@H]3O[C@@H](n4cnc5c(N)ncnc54)[C@H](O)[C@@H]3O)[C@@H](O)[C@H]2O)c1 [sNAD, thionicotinamide adenine dinucleotide]	substantially cleaved	substantially cleaved	
Guanine triphosphate [GTP]	unable to detect substantial cleavage	unable to detect substantial cleavage	
Nicotinamide Adenine Dinucleotide Phosphate [NADP^+]	cleave		
